One molecule from PMC11123961, “Design, Synthesis, and Biological Evaluation of the Quorum-Sensing Inhibitors of Pseudomonas aeruginosa PAO1” (Molecules, 2024) can be followed below.

The subject of series [1] is wildtype Caenorhabditis elegans N2 infected with P. aeruginosa PAO1. The series is described as follows: C. elegans survival assay. Format: in vivo. The source says: 3.2.7. C. elegans Survival Assay
The negative control was the PGS agar plate coated with E. Coli OP50. Next, 50 wildtype C. elegans N2 strain-synchronized nematodes (L4 stage) were chosen and placed onto the plates. […] When the nematodes in the study were immobile, they were deemed dead. The number of nematodes that survived was tabulated to generate a survival curve.

A short description of series [2]: Pharmacokinetics in male CD1 mice. Format: in vivo. The procedure: Beijing Pharmaron Inc. carried out pharmacokinetic studies relating to compound Y-31 in mice. All of the animals were kept in a pathogen-free barrier animal facility, and the company’s Animal Care and Use Committee approved the experiments. On the day of administration, the sample solution was made into a 5, 20 mg/kg solution. Following a single dosage of compound Y-31 either intravenously (5 mg/kg, IV) or orally (20 mg/kg, PO) at 0.25, 0.5, 1, 2, 4, 6, 8, and 24 h post-administration, blood samples were taken from CD1 male mice (n = 3). After that, the plasma was centrifuged for […] at 4000 g and 4 °C to yield. The plasma was diluted 3 times with water. For quantitative analysis, a measurement of 2 µL of diluted supernatant was put into the LC/MS/MS apparatus. […] Phoenix WinNonlin 8.0 software was applied to calculate the pharmacokinetic parameters.

The test system of series [3] is P. aeruginosa PAO1 swarming motility. As to the kind of experiment: Swarming motility analysis. The format is cell-based, Pseudomonas aeruginosa. To be noted: 40 μM, 81.25 μM and 162.5 μM, swarming agar plates. The procedure: 3.2.6. Swarming Motility Analysis
After being inoculated into LB medium, P. aeruginosa PAO1 was cultivated at 37 °C and 150 rpm until OD600 = 1.0. Then, 1 μL of P. aeruginosa PAO1 bacterial medium was inoculated into the center of swarming solid medium (0.8% nutrient broth (BD), 0.5% glucose, 0.3% agar (BD)) and cultured at 30 °C for 16 h. Then, the colonies of the swarming plate were picked and added to the center of the cooled swarming solid medium (0.8% nutrient broth (BD), 0.5% glucose, 0.5% agar (BD)), which had been supplemented with compounds and cultured at 30 °C for 24 h.

Another series deals with C. violaceum CV026 QS. The series is described as follows: Half-maximal inhibitory concentration against C. violaceum CV026 QS (suppression of violacein production). The format is cell-based. The conditions noted are these: Chromobacterium violaceum; C6-HSL-induced violacein production, 12 h; mean ± SD of three independent tests; read-out: IC50, anti-CV026 QS activity. The source says:
In the exploration of the QS inhibitions, C. violaceum CV026, a mini-T5 mutant of C. violaceum ATCC31532, is frequently employed as a biosensor strain. Because C. violaceum CV026 lacks the CviI gene, which directs the synthesis of AHLs, it is unable to manufacture violacein on its own. The violacein reaction can be induced in C. violaceum CV026 by adding exogenous C6-HSL [27]. As a result, the violacein reaction in C. violaceum CV026 can be used to assess the compounds’ suppression of QS, as used in this investigation.
3.2.2. The Half-Maximal Inhibitory Concentration (IC50) of Compounds against C. violaceum CV026 QS [36]
Subsequently, the log phase of C. violaceum CV026 was placed in a 12-well plate (2 mL/well) after being diluted 10-fold with fresh LB medium. The experimental group received 15 μL of the diluted inducer C6-HSL (0.125 mM), and 8 μL of each dilution gradient compound was added to each well, while the positive control group received 8 μL of C10-HSL, and the blank control group received 8 μL of LB medium. The plates were incubated at 30 °C and 130 rpm for 12 h. After centrifuging 1 mL of the culture for 10 min at 11,255 g, the supernatant was discarded. After dissolving the violacein with 500 μL of DMSO, the mixture was centrifuged once more at 11,255 g for 10 min. In order to measure the absorbance at 585 nm, 200 μL of the upper pigment was added to a 96-well plate. The IC50 was calculated using GraphPad Prism 5 according to the formula (absorbance at 585 nm of the test concentration/the absorbance of the control at 585 nm × 100%).

Series [4] has as its system P. aeruginosa PAO1 pyocyanin. The series is described as follows: Pyocyanin quantification assay. The format is cell-based, Pseudomonas aeruginosa. As for the experimental part:
The method used to perform the pyocyanin quantification assay was previously reported. In short, P. aeruginosa PAO1 was cultivated in LB medium to reach the logarithmic growth phase at 37 °C and 150 rpm. Following this, the medium (2% peptone, 1% K2SO4, 0.3% MgCl2) was diluted 10 times. A 5 mL bacterial culture containing and excluding the compound (162.5 μM, 81.25 μM, and 20 μM) was incubated for 16 h at 37 °C at 150 rpm. The culture was centrifuged at 1665 g for 10 min in order to extract pyocyanin. The supernatant was then collected and extracted using 3 mL of chloroform. The upper aqueous phase was then collected via centrifugation at 1665 g for 10 min after 1 mL of 0.2 M HCl was combined with the chloroform layer. Absorbance was measured at 520 nm. The pyocyanin inhibition rate was calculated as follows = (OD520 blank − OD520 sample)/OD520 blank × 100%.

The mark [5] stands for this setting: mouse, plasma, IV, 5 mg/kg, male CD1 mice.
Setting [6] is: mouse, plasma, PO, 20 mg/kg, male CD1 mice.

The AUC is concentration integrated over time. High values mean more exposure, low ones less exposure. As a reminder, the Cmax is the peak of the concentration-time curve. For orientation: Tmax means the time at which the peak concentration occurs. By half-life is commonly meant the time in which the quantity being followed falls by half. Higher therefore signals slow decline. The bioavailability is dose-corrected exposure relative to a reference, in per cent. By IC50 is commonly meant the concentration that inhibits the measured activity by half. In general, inhibition refers to how much of the control response was suppressed. As for `O=C(CCCOc1ccc(I)cc1)NN1CCCOC1=O` [Y-31], in series [1] (Y-31 162.5 μM + Tob 0.25 μg/mL), the “Average survival rate of infected nematodes, Y-31 combined with Tob compared with Y-31 or Tob alone” value is recorded as “significantly improved”. Also, in series [1] (after 48 h, agent alone: Y-31 162.5 μM, Tob 0.25 μg/mL), the “Improvement of the survival rate of infected nematodes (average)” value is on record as 9.33%. For the same molecule, in series [2] (setting [5]), the AUC was determined as 935 ng·h/mL, the Cmax is 3290 ng/mL, the Tmax is 4.8 min and the half-life is 7.8 min. The bioavailability in series [2] (mouse, plasma, PO, 20 mg/kg vs IV 5 mg/kg, male CD1 mice, read-out: F (bioavailability)) is 30.4%. Moreover, in series [2] (setting [6]), the AUC was 1100 ng·h/mL, the Cmax worked out at 1280 ng/mL, the time of peak concentration (Tmax) came to 15 min and the half-life was 311 min. In series [2] (single dose 5 mg/kg IV or 20 mg/kg PO, CD1 male mice), the “Clinical symptoms during the pharmacokinetic trial” value is on record as “no unusual clinical symptoms were noticed”. Besides, the “Swarming motility compared to the control group” value in series [3] is “significantly reduced swarming motility”. For the same molecule, in the series on C. violaceum CV026 QS, the IC50 amounted to 91.5 ± 3.35 µM. Further, the “Inhibition rate of pyocyanin” value in series [4] (162.5 μM) was determined as 22.5%. For the same molecule, the inhibition at 40 µM in series [4] (Pseudomonas aeruginosa, PAO1, read-out: Inhibition rate of pyocyanin, 40 μM) was 10%. For the same molecule, in series [4] (Pseudomonas aeruginosa, PAO1, read-out: Inhibition rate of pyocyanin, 81.5 μM), the inhibition at 81.5 µM is 17.1%. Moreover, the inhibition at 162.5 µM in series [4] (Pseudomonas aeruginosa, PAO1, read-out: Inhibition rate of pyocyanin, 162.5 μM) came to 22.5%.
